Data set [1] deals with HT1080 cells. As to the kind of experiment: FBS-directed migration of HT1080 cells in Boyden chambers. The conditions noted are these: 10 nM peptide, 10% FBS, 4 hrs. It is filed as cell-based, human. Here is the method: FIG. 4 Retro-inverso peptides inhibit FBS-directed migration of HT1080 cells in a dose dependent manner (Example 4).
To assess whether retro-inverso peptides exert some effect on directional cell migration, HT1080 cells were allowed to migrate for 4 hrs in Boyden chambers toward serum-free medium (CTRL), 10% FBS (None) or 10% FBS mixed with peptides, each tested at 10 nM concentration. For quantitative analysis, the basal values assessed in the absence of FBS (CTRL) was taken as 100% and all values were reported relative to that. Data are the means±SD of two independent experiments, performed in triplicate. Statistical significance calculated against None with *p<0.01, **p<0.001 (A). All retro-inverso peptides caused a reduction of FBS-directed cell migration although to different extent. Peptides RI-1, RI-2, RI-3, RI-4 and RI-5 reduced by 49%, 46%, 65%, 9% and 6%, respectively, the extent of FBS-directed cell migration. Similar results were obtained when, HT1080 cell migration was monitored in real time for 18 hrs at 37° C., 5% CO2 by the xCELLigence system. Data represent mean±SD from a quadruplicate experiment representative of 2 replicates (B). Then, HT1080 cells were allowed to migrate in Boyden chambers toward 10% FBS plus increasing concentrations of RI-3, and data were expressed as a percentage of cells migrated toward FBS alone (100%) Inhibitory effect of RI-3 is dose-dependent, it starts in the high fM range, it seems to level off in the nM range and reaches an overall 50% reduction at 1×10^−13M (C).

Data set [2] concerns HT1080 cells. Description: FBS-directed matrigel invasion of HT1080 cells (xCELLigence RTCA). In kind it is cell-based, human. From the text: FIG. 5 Peptides RI-1, RI-2, RI-3, RI-4 and RI-5 reduced by 33%, 35%, 81%, 52% and 11%, respectively, the extent of FBS-directed matrigel invasion of HT1080 cells (A), as assessed in real time using the xCELLigence RTCA technology. The inhibitory effect of RI-3 is dose-dependent (B) (Example 5).
Cell migration is a prerequisite for cancer invasion. Therefore, we investigated whether retro-inverso peptides prevent matrigel invasion of HT1080 cells using the xCELLigence RTCA technology. Cells were seeded on polymerized matrigel and lower chambers were filled with DMEM (CTRL), growth medium (None) or growth medium with 10 nM the indicated peptides (A), or with increasing concentrations of RI-3 (B). Matrigel invasion was monitored in real time for 20 (A) or 18 (B) hrs at 37° C., 5% CO2 and the impedance values were automatically monitored as changes in cell index. Data represent means±SD from quadruplicate experiments, each representative of 2 replicates. HT1080 cells were able to cross matrigel in the presence of 10% FBS. All retro-inverso peptides caused a reduction of FBS-directed cell migration although to different extent.

Data set [3] deals with HT1080 cells. Description: Proliferation of HT1080 cells (xCELLigence). In kind it is cell-based, human. The conditions noted are these: 10 μM, 2-26 time range. On the procedure:
Cell proliferation of HT1080 cells was monitored for 75 hrs using the xCELLigence technology. Cells (1×10^3 cells/well) were seeded on E-plates in growth medium (None) or growth medium plus 10 μM RI-3 and allowed to proliferate at 37° C., 5% CO2. Medium was replaced every 24 hrs (arrows). Impedance value of each well was automatically monitored and expressed as cell index. Data represent mean±SD from a quadruplicate experiment representative of 2 replicates (A). […] In the 2-26 time range the doubling times of cells exposed to diluents or to RI-3 were 16.3828+/−0.22 hrs and 17.7648+/−0.27 hrs, respectively (B).

The test system of data set [4] is human Sarc cells. As to the kind of experiment: Human Sarc cell tumors in the flank of CD1 nude mice. The conditions noted are these: 6 mg/Kg i.p. every day for 10 days. It is filed as in vivo. On the procedure:
FIG. 11 The intraperitoneal (i.p.) administration of 6 mg/Kg of the retro-inverso peptide RI-3 every day for 10 days reduces in vivo tumor growth and vascular infiltration by human chondrosarcoma Sarc cells in nude mice. (A) Time-dependent average of treated and control mice. (B) Tumor volumes measured at different time points. (C) Tumors excised after 10 days. (D) CD31 immuno-staining of formalin fixed paraffin sections of the excised tumors. (E) Counts of vascular channels harboring red blood cells on CD31 immuno-stained sections. (F) Quantification of Circulating Tumor Cells (CTCs). (Example 11)
Ten six-eight week old, CD1 female nude mice received the injection of human Sarc cells as a single-cell suspension (1×10^6 cells in 100 μl PBS, 96% viability) into the right flank. Five animals received i.p-administration of 6 mg/Kg RI-3 every day for 10 days, and five received injections of vehicle only (CTRL). A. Time-dependent average weight was monitored every two days. B. Tumor volumes measured at different time points with a caliper, using the formula: ½×(width)^2×length (mm). After 10 days, blood samples (˜500 μL/mouse) from the retroorbital venous plexus of mice were collected and processed for determination of Circulating Tumor Cells (CTC)s. Then, animals were sacrificed and the excised tumors (C) were fixed in buffered formalin and processed for paraffin sectioning. Tumor vascularization was assessed by counting vascular channels harbouring red blood cells on CD31 immuno-stained sections (D) in 5 randomly chosen fields per section, in at least two sections per tumor at ×200 (E). To quantify CTCs, DNA from nucleated cells of murine blood samples was purified and quantitated by Real-Time PCR using primers targeting human Alu-sequences. Number of CTCs was calculated by comparing the obtained amplification curves with others generated in spiking experiments, which were included in every run (F).
Tumor volumes of vehicle- and RI-3-treated mice were 445+/−285 and 112+/−41 mm^3, respectively, with p<0.05 (B). After 10 days, animals were sacrificed and tumors excised (C). According with the ability of RI-3 to prevent in vitro formation of a capillary network, the intratumoral microvessel density was reduced in tumors from animals treated with RI-3 as compared to those treated with vehicle alone (D-E).

Here are results for 1 compound from US10836792B2, “Retro-inverso peptide inhibitors of cell migration, extracellular matrix and endothelial invasion by tumor cells” (ISTITUTO NAZIONALE TUMORI IRCCS “FONDAZIONE G. PASCALE”, priority 2016, dated 2020).

Non-standard residues stand in square brackets, D forms with d. Residues, ends and D or L forms follow the SMILES beside them. Aib = CC(C)(N)C(=O)O

In the case of `CC(=O)N[C@H](Cc1ccc(O)cc1)C(=O)N[C@H](CCCNC(=N)N)C(=O)NC(C)(C)C(=O)N[C@H](CCCNC(=N)N)C(N)=O` [RI-3, Ac-(D)-Tyr-(D)-Arg-Aib-(D)-Arg-NH2] (Ac-[dY][dR][Aib][dR]-NH2), the “reduction of the extent of FBS-directed cell migration” value in data set [1] is 65%. Moreover, in data set [2] (10 nM peptide, growth medium, 20 hrs), the “reduction of the extent of FBS-directed cell invasion (matrigel)” value turned out to be 81%. The “dose dependence of the inhibition of matrigel invasion” value in data set [2] (increasing concentrations, 18 hrs) was “maximal effect being reached in the nanomolar range”. For the same compound, the “doubling time during exponential growth” value in data set [3] came to 17.7648 ± 0.27 h. In data set [4], the body weight result is “without clear changes in body weight”, the “mice with CTCs in blood samples” value is recorded as 3/5, the “reduction of the number of circulating sarcoma cells in murine blood samples” value was found to be 74.5% and the signs of toxicity result is “no signs of toxicity”. Further, the tumor volume in data set [4] is reported as 112+/−41 mm^3. Moreover, in data set [4] (blood after 10 days), the “Circulating Tumor Cells in blood” value was 2.4+/−2 CTCs/mL. Further, the “intratumoral microvessel density (CD31)” value in data set [4] (vs vehicle) was “reduced”.
